The values below come from ChEMBL document CHEMBL1201862, “PubChem BioAssay data set” (2004).

Some test systems named below: HCT-15; UO-31; UACC-257; IGROV-1; HCT-116; SNB-75; OVCAR-5; T47D; SW-620; HT-29; A498; M14; NCI-H460; HOP-62; CAKI-1; Malme-3M; NCI-H522.
Common to all, as to test: DTP human tumour cell line panel, 48 h

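Cultured in 96-well plates, cells were exposed to test compound for 48 hours across five concentrations. The concentration for 50% growth inhibition is given as GI50.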 Active and inactive are the calls of the source. No stated cut-off is given here; in the data, active = GI50 up to about 1.1 µM and inactive = higher. Some results are limits rather than exact numbers.

In general, GI50 refers to the concentration at which growth is held to half of that of the control.

Take `CCOC(O)(NC(=O)C(C(F)(F)F)C(F)(F)F)C(F)(F)F` (stereo unspecified): the GI50 is > 100 µM in the assay with HCT-15; > 100 µM (inactive) in the assay with UO-31; > 100 µM (inactive) in the assay with UACC-257; > 100 µM (inactive) in the assay on IGROV-1; > 100 µM (inactive) with HCT-116; > 100 µM (inactive) in the assay with SNB-75. Also, the GI50 with OVCAR-5, with T47D, in the assay with SW-620, in the assay with HT-29, in the assay on A498 and with M14 was > 100 µM (inactive) in each case.

Consider `Cn1nc(-c2ccc(S(=O)(=O)N/C(=N/c3ccc(Cl)cc3)NN)s2)cc1C(F)(F)F`, for which the GI50 is 21.8 µM in the assay with HCT-15; 14.6 µM (inactive) in the assay on UO-31; 19.5 µM (inactive) in the assay with UACC-257; 19.3 µM (inactive) with IGROV-1; 19.9 µM (inactive) in the assay with NCI-H460; 14.9 µM (inactive) with HCT-116. Moreover, the GI50 in the assay on SNB-75 was 16.3 µM (inactive); in the assay with OVCAR-5, 15.9 µM (inactive); in the assay on T47D, 13.3 µM (inactive); with SW-620, 18.4 µM (inactive); in the assay on HOP-62 it was 16.5 µM (inactive); in the assay with HT-29, 16.2 µM (inactive). Moreover, the GI50 with CAKI-1 is 18.7 µM (inactive); with A498, 16.4 µM (inactive); with M14, 17.5 µM (inactive).

For `O=S(=O)(O)c1cc(S(=O)(=O)O)c2c(/N=N/c3ccccc3)c(O)ccc2c1`, the GI50 with HCT-15 was > 100 µM; in the assay on UO-31, > 100 µM (inactive); in the assay on UACC-257, > 100 µM (inactive); with IGROV-1, > 100 µM (inactive); in the assay with HCT-116, > 100 µM (inactive); with SNB-75, > 100 µM (inactive). Further, the GI50 in the assay with OVCAR-5, in the assay on T47D, in the assay with SW-620, in the assay on HOP-62, in the assay on HT-29 and in the assay with CAKI-1 was > 100 µM (inactive) each time. Moreover, the GI50 in the assay on A498 and with M14 was > 100 µM (inactive) each time.

As to `Cn1c2c(c3ccccc31)CC(=O)N1CCCC(C1)CC21OCCO1` (stereo unspecified), the GI50 is > 100 µM in the assay with HCT-15; > 100 µM (inactive) in the assay on UO-31; > 100 µM (inactive) in the assay with UACC-257; > 100 µM (inactive) with IGROV-1; > 100 µM (inactive) with NCI-H460; 41.7 µM (inactive) in the assay on HCT-116. For the same compound, the GI50 in the assay with SNB-75, in the assay on Malme-3M, in the assay on OVCAR-5, in the assay with T47D, in the assay with SW-620 and with HOP-62 was > 100 µM (inactive) each time. For the same compound, the GI50 in the assay on HT-29, in the assay on CAKI-1, with A498 and in the assay on M14 was > 100 µM (inactive) each time.

Regarding `CCCCNC(=O)Nc1c(C(N)=O)c2n(c1C(=O)OCC)CCCCC2`, the GI50 with HCT-15 is > 100 µM; with UO-31, > 100 µM (inactive); with UACC-257 it was > 100 µM (inactive); with IGROV-1 it was > 100 µM (inactive); in the assay with NCI-H460, > 100 µM (inactive); with HCT-116, > 100 µM (inactive). For the same compound, the GI50 with SNB-75, with T47D, in the assay on SW-620, with HOP-62, with HT-29 and in the assay on CAKI-1 was > 100 µM (inactive) each time. Further, the GI50 in the assay on A498 and with M14 was > 100 µM (inactive) each time.

In the case of `CSC(=S)N/N=C(\C)c1ccc(S(=O)(=O)N(C)c2ccccc2)cc1`, the GI50 in the assay with HCT-15 was 34.2 µM; in the assay with UO-31 it was 15.7 µM (inactive); with UACC-257 it was 33.7 µM (inactive); with IGROV-1, 3.5 µM (inactive); in the assay with NCI-H460, 5.13 µM (inactive); with HCT-116, 14.3 µM (inactive). Besides, the GI50 is 39.3 µM (inactive) in the assay with SNB-75; 2.07 µM (inactive) in the assay with Malme-3M; > 100 µM (inactive) in the assay on OVCAR-5; 66.5 µM (inactive) in the assay with T47D; 41.9 µM (inactive) in the assay on SW-620; 56.5 µM (inactive) with HOP-62. For the same compound, the GI50 in the assay on HT-29 is 26.1 µM (inactive); in the assay on CAKI-1 it was 50.5 µM (inactive); with A498, 89.7 µM (inactive); in the assay with M14, 25.5 µM (inactive).

Take `OC1(c2ccc(Cl)cc2)c2c(ccc3c2OCO3)C2=NCCN21` (stereo unspecified): the 50% growth inhibitory concentration (GI50) is 52.7 µM with HCT-15; 38.5 µM (inactive) in the assay on UO-31; 19.1 µM (inactive) in the assay on UACC-257; 20.5 µM (inactive) with IGROV-1; 40.6 µM (inactive) in the assay on NCI-H460; 36.8 µM (inactive) in the assay with HCT-116. The GI50 in the assay with SNB-75 is 6.14 µM (inactive); with Malme-3M, 1.23 µM (inactive); in the assay on OVCAR-5 it was 65.3 µM (inactive); in the assay on T47D, 31.7 µM (inactive); with SW-620 it was 97.9 µM (inactive); in the assay with HOP-62 it was 58.3 µM (inactive). Also, the GI50 in the assay with HT-29 is 29.6 µM (inactive); in the assay with CAKI-1, 46.9 µM (inactive); with A498, 20.1 µM (inactive); in the assay on M14 it was 16.6 µM (inactive).

Take `NC1CNC(=O)c2c(Cl)sc(Cl)c21` (stereo unspecified): the GI50 with HCT-15 was > 100 µM; in the assay with UO-31 it was > 100 µM (inactive); in the assay on UACC-257, > 100 µM (inactive); with IGROV-1, > 100 µM (inactive); in the assay with NCI-H460 it was > 100 µM (inactive); in the assay with HCT-116, > 100 µM (inactive). In addition, the GI50 in the assay on SNB-75, in the assay on Malme-3M, in the assay on OVCAR-5, in the assay on T47D, with SW-620 and in the assay on HOP-62 was > 100 µM (inactive) throughout. The GI50 in the assay on HT-29, with CAKI-1, in the assay with A498 and with M14 was > 100 µM (inactive) throughout.

Consider `COc1cc(/C=N/N=C(\N)NO)cc(OC)c1OC`, for which the GI50 with HCT-15 is 28.6 µM; with UO-31, 33.1 µM (inactive); in the assay on UACC-257, 43.1 µM (inactive); in the assay on IGROV-1 it was 42.7 µM (inactive); with NCI-H460, 28.2 µM (inactive); with HCT-116 it was 32.1 µM (inactive). In addition, the GI50 in the assay on Malme-3M is 22 µM (inactive); with OVCAR-5, 49.5 µM (inactive); in the assay on T47D it was 36.6 µM (inactive); in the assay with SW-620, 50 µM (inactive); in the assay on HOP-62, 27.4 µM (inactive); in the assay with NCI-H522 it was 34.8 µM (inactive). Moreover, the GI50 was 22.8 µM (inactive) in the assay on HT-29, 72.4 µM (inactive) with CAKI-1, 46.3 µM (inactive) with A498 and 28.4 µM (inactive) in the assay on M14.

As to `CCOC(=O)c1cc(C(=O)c2ccccc2)n2nc(-c3ccc(Cl)cc3)ccc12`, the GI50 is 33.9 µM in the assay with HCT-15; 14.1 µM (inactive) in the assay with UO-31; 30.1 µM (inactive) with UACC-257; 18.7 µM (inactive) in the assay on IGROV-1; 22.1 µM (inactive) in the assay with NCI-H460; 44.7 µM (inactive) in the assay with HCT-116. Moreover, the GI50 in the assay with Malme-3M is 19.5 µM (inactive); with OVCAR-5, 23.3 µM (inactive); in the assay with T47D, 21.9 µM (inactive); with SW-620 it was 93.8 µM (inactive); with HOP-62 it was 19.5 µM (inactive); in the assay on NCI-H522 it was 18.5 µM (inactive). For the same compound, the GI50 in the assay with HT-29 was 23.7 µM (inactive); with CAKI-1, 31.8 µM (inactive); with A498 it was 16.8 µM (inactive); with M14 it was 31.8 µM (inactive).
